The values below come from the NIST ThermoML archive (doi:10.1021/acs.jced.7b00613).

The conditions of data set [1]: Liquid; for mass density: 293.15 K, 101.33 kPa, Vibrating tube method; for vapor or sublimation pressure: 278.15 K, Closed cell (Static) method.
Data set [2] in a line: refractive index (Na D-line) (dimensionless). Particulars: 293.15 K; 101.33 kPa; Liquid; Standard Abbe refractometry.

± gives the expanded uncertainty stated by the source.

A word on the mass density: it is mass per unit of volume. By refractive index is commonly meant a measure of how strongly the sample bends light. On to `CC(C)CC(C)(C)C` [2,2,4-trimethylpentane], for which the mass density in data set [1] came to 692 ± 1 kg/m3. In addition, the refractive index in data set [2] is reported as 1.391 ± 0.001.
As usually defined, the vapor or sublimation pressure is the equilibrium pressure above the liquid or solid. Take `O=C=O` [carbon dioxide]: the “vapor or sublimation pressure” value in data set [1] turned out to be 3962 ± 18 kPa.
Still for that read-out and setting: as for `CC` [ethane], the figure is 2699 ± 14 kPa.
Consider `CCCCCC` [hexane], for which the mass density in data set [1] is 660 ± 1 kg/m3. The refractive index in data set [2] stood at 1.375 ± 0.001.
The corresponding values for `CCCCCCCC` [octane] are 703 ± 1 kg/m3 and 1.396 ± 0.001.
